“And” between values parts separate entries of the source, which are not always exact repeats. Equal values may be shown once. “Also recorded” adds a separate entry of the source. Read-outs that look alike come from different tables or passages of the source.
Tests used:
SCs and astrocytes = assay: SC:astrocyte confrontation assay (boundary formation); format: cell-based, Sprague-Dawley rat; details: modified heparins 10 μg/ml, 2 days of treatment
Protocol: (§1) All primary neural cultures were generated from Sprague-Dawley rat pups of either sex. As described previously^10,37, purified type 1 astrocytes were prepared by digesting cortices (dissected from 1-day old Sprague Dawley (SD) rats) in 1.33% (w/v) collagenase (Sigma-Aldrich, Gillingham, UK), seeding (˜2×10^7 cells per 75 cm^2 flask) and culturing the cells in poly-L-lysine (PLL, 13.3 μg/ml, Sigma-Aldrich, Gillingham, UK) coated 75 cm2 flasks for 10-12 days. The cells were maintained in DMEM (Invitrogen, Paisley, Scotland) supplemented with 10% (v/v) foetal bovine serum (FBS) (Sigma-Aldrich, Gillingham, UK) and L-glutamine (2 mM, Sigma-Aldrich, Gillingham, UK) (DMEM-FBS). Confluent flasks were shaken on a rotary platform overnight at 37° C. to remove contaminating oligodendrocyte precursor cells. The remaining cells were 85-95% type 1 astrocytes as identified by labelling for glial fibrillary acidic protein (GFAP), an astrocyte cell specific marker.
SCs were purified using a modification of the method described by Brockes and colleagues^20. This modification involved treating the cultures with cytosine arabinoside (AraC, 10^−5 M, Sigma-Aldrich, Gillingham, UK), followed by incubation with anti-Thy1.1 antibody (1:1 supernatant, Sigma-Aldrich, Gillingham, UK) and rabbit complement (1:6, Harlan Laboratories Ltd., UK) to reduce contamination by fibroblasts^10. […]
Confrontation assays were performed as described by Wilby et al. (1999) and Lakatos et al. (2000) with some modifications^10,48. […] Cultures were then immunolabelled using anti-GFAP for astrocytes (1:500; anti-rabbit (Dako, Ely, UK)) and anti-p75NTR for OECs and SCs (1:1; IgG1; hybridoma supernatant^49. Fluorescent images were captured using an Olympus BX51 fluorescent microscope and Image-Pro software. Using Adobe Photoshop Elements 7.0, a 300 μm line was drawn along the interface between astrocytes and either OECs or SCs. The numbers of OECs or SCs crossing the cell:cell boundary were counted and averaged over five randomly chosen fields. Experiments were repeated at least three times. […]

normal human plasma [1] = assay: PT assay; format: biochemical; details: tested up to 100 ug/ml
Protocol: (§2) APTT and PT assays were performed using a Axis Shield Thrombotrack 1 instrument using normal human plasma, Pathrombin SL reagent and Thromborel S (all from Axis Shield) reagents according to manufacturers instructions.
(§3) For all assays, heparins and polysaccharides were tested up to 100 ug/ml.

Factor IIa = target: T1, Factor IIa (Homo sapiens, UniProt P00734+P01008); assay: Factor IIa colorimetric substrate assay with antithrombin III; format: biochemical; details: tested up to 100 ug/ml
T1 construct: Factor IIa (Sigma, 15 mU/ml final concentration); purchased Sigma (Factor IIa); American Diagnostica (antithrombin III)
Protocol: (§4) Factor Xa and Factor II activity was measured using a colorimetric substrate assay as previously described^17. Briefly, in a 96 well ELISA plate, antithrombin III (American Diagnostica, 30 mIU/ml final concentration) was incubated with heparin or polysaccharide fractions in 0.9% NaCl at 37° C. for 2 minutes. Factor IIa (Sigma, 15 mU/ml final concentration) or Factor Xa (Thermo Scientific, 15 mU/ml final concentration) was added and the samples incubated for a further 1 minute at 37° C. Factor Xa Chromogenic substrate (Sigma, 240 uM final concentration) was added to the samples and incubated for 10 minutes at 37° C. The reaction was stopped with glacial acetic acid (Sigma, 25% final concentration). Colour change of the substrate was measured at 405 nm.
as §3

Factor Xa (Homo sapiens) [2] = tested on: T2, Factor Xa (Homo sapiens); assay: Anti-factor Xa activity against PIMH standard, Coatest Heparin test kit; format: biochemical; details: compared with standard heparin (HEP1)
T2 construct: purchased Chromogenix
T2 sequence (P01008 33-464): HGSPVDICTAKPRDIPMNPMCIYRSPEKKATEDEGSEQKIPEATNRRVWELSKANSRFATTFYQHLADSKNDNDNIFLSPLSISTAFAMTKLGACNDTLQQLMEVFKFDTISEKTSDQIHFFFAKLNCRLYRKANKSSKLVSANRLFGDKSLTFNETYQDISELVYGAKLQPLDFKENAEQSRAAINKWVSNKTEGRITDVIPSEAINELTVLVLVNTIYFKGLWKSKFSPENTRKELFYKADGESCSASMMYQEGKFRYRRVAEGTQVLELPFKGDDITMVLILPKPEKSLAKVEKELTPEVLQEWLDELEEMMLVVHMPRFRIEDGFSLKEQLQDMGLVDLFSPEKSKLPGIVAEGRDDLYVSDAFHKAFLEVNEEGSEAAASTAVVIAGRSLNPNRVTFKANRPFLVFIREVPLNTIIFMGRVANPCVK
Protocol: Anti Factor Xa activity can be measured against a PIMH standard of known activity (Sigma, UK) using a diagnostic grade Coatest Heparin test kit (Chromogenix, MA), adapted to a 96-well plate format, reading A405 (Polarstar plate reader (BMG LabTechnologies, U.K.))^17.
The anti-factor Xa activity was measured against a PIMH standard of known activity using a diagnostic grade Coatest Heparin test kit (Chromogenix, MA), adapted to a 96-well plate format, reading A405.

OECs and astrocytes [3] = assay: OEC:astrocyte confrontation assay (boundary formation); format: cell-based, Sprague-Dawley rat; set-up: key to graded score of boundary formation: mingling (−); partial boundary (+/−); complete boundary (++); details: 2 days of treatment; for boundary formation between OECs and astrocytes: modified heparins 10 μg/ml
Protocol: as §1
OECs were isolated from the olfactory bulb of 7 day old SD rat pups and purified using magnetic nanoparticles (STEMCELL Technologies, UK) pre-bound with the p75^NTR antibody (mouse IgG1, Abcam, Cambridge, UK)^30. The cells were grown in low glucose DMEM with 5% (v/v) FBS and 2 mM L-glutamine and further supplemented with DMEM-BS (Bottenstein, 1979), FGF2 (25 ng/ml, Peprotech, London UK), heregulin β-1 (50 ng/ml, R&D Systems, Oxon, UK), forskolin (5×10^-7 M Sigma-Aldrich, Gillingham, UK) and astrocyte conditioned media (ACM) (1:5, fresh serum-free media taken after incubation with a confluent astrocyte monolayer for 48 h)^18, 37.
Confrontation assays were performed as described by Wilby et al. (1999) and Lakatos et al. (2000) with some modifications^10,48. Briefly, 70 μl containing 10,000 OECs or SCs were seeded into one well of a silicon Ibidi culture insert on a PLL-coated glass coverslip (Ibidi GmbH, Munich, Germany). Into the opposing, parallel well, 10,000 astrocytes were seeded. Cells were allowed to attach for 1 h before careful removal of the insert followed by a wash with DMEM-FBS to remove unattached cells. Cultures were maintained in DMEM-FBS and allowed to grow towards each other over a period of 5-7 days, allowing time for cells to make contact and interact^10. In some experiments, modified heparins or blocking antibodies were added to the cultures after the cells had contacted each other. Cultures were then immunolabelled using anti-GFAP for astrocytes (1:500; anti-rabbit (Dako, Ely, UK)) and anti-p75NTR for OECs and SCs (1:1; IgG1; hybridoma supernatant^49. Fluorescent images were captured using an Olympus BX51 fluorescent microscope and Image-Pro software. Using Adobe Photoshop Elements 7.0, a 300 μm line was drawn along the interface between astrocytes and either OECs or SCs. The numbers of OECs or SCs crossing the cell:cell boundary were counted and averaged over five randomly chosen fields. Experiments were repeated at least three times.
Modified heparins were produced semisynthetically by chemical modification (selective desulfation) of heparin as described in Example 1. These structurally distinct, model “HS-mimetic” polysaccharides^50 are useful tools for investigating structure-activity relationships of HS^15-17,31. Heparins were added to confrontation assays at 10 μg/ml at the stage when cells made contact (day 0) and treatment was repeated on day 2. Cultures were fixed and stained as described above on day 3. […]
Purified OECs were seeded at a density of 5000 cells/100 μl into one chamber of an Ibidi culture insert (Ibidi GmbH, Munich, Germany) sealed onto a PLL coated coverslip in a well of a 24-well plate. Cells were cultured in defined OEC medium for 24 h, after which, the medium was replaced with low serum (2% (v/v) FBS) OEC medium containing 1 μM siRNA. siRNA sequences were obtained from Dharmacon/Thermo Scientific (Sulf 1: E-093746-00-0005; Sulf2: E-093673-00-0005; non-targeting: D-001910-01-05; Thermo Fisher Scientific Inc, IL, USA). […]

Factor Xa (Homo sapiens) [4] = target: T2, Factor Xa (Homo sapiens); assay: Factor Xa colorimetric substrate assay with antithrombin III; format: biochemical; details: tested up to 100 ug/ml
Protocol: as §4, §3

normal human plasma [5] = assay: APTT assay; format: biochemical; details: tested up to 100 ug/ml
Protocol: as §2, §3

OECs and astrocytes [6] = details: previous work; cited from earlier work
[7] = Celsus Labs lot PH-42800; cited from earlier work

Row | Anticoagulant activity (anti-Xa activity) (Factor Xa (Homo sapiens) [2]) [%] | Substance | IC50 PT (normal human plasma [1]) | IC50 Factor IIa (Factor IIa) | IC50 Factor Xa (Factor Xa (Homo sapiens) [4]) | IC50 APTT (normal human plasma [5]) | other results
1 | 0.03 | 6-O-desulphated, 2-O-desulphated heparin [HEP7] | NI (No inhibition of coagulation up to 100 ug/ml of compound) | NI (No inhibition of coagulation up to 100 ug/ml of compound) | NI (No inhibition of coagulation up to 100 ug/ml of compound) | NI (No inhibition of coagulation up to 100 ug/ml of compound) | SCs mingling with astrocytes / boundary formation (SCs and astrocytes; listed as Hep 7): increased number of SCs mingling with astrocytes; also recorded: significantly increased cell mingling; boundary formation between OECs and astrocytes (OECs and astrocytes [3]; listed as Hep 7): do not promote boundary formation; boundary formation between OECs and astrocytes (OECs and astrocytes [3]; listed as Hep7): did not
2 | 0.03 | Ido 2-de-O-sulphated, N-acetylated heparin [HEP5] | NI (No inhibition of coagulation up to 100 ug/ml of compound) | NI (No inhibition of coagulation up to 100 ug/ml of compound) | NI (No inhibition of coagulation up to 100 ug/ml of compound) | NI (No inhibition of coagulation up to 100 ug/ml of compound) | boundary formation between OECs and astrocytes (OECs and astrocytes [3]): did not
3 | 0.03 | 6-O-desulphated, N-acetylated heparin [HEP6] | NI (No inhibition of coagulation up to 100 ug/ml of compound) | NI (No inhibition of coagulation up to 100 ug/ml of compound) | NI (No inhibition of coagulation up to 100 ug/ml of compound) | NI (No inhibition of coagulation up to 100 ug/ml of compound) | SCs mingling with astrocytes / boundary formation (SCs and astrocytes; listed as Hep 6): increased number of SCs mingling with astrocytes; also recorded: significantly increased cell mingling; boundary formation between OECs and astrocytes (OECs and astrocytes [3]; listed as Hep 6): do not promote boundary formation; boundary formation between OECs and astrocytes (OECs and astrocytes [3]; listed as Hep6): did not
4 | 35.0 | Per-sulphated heparin [HEP9] | – | – | – | – | boundary formation between OECs and astrocytes (OECs and astrocytes [3]; listed as Hep 9): induced the strongest boundaries; boundary formation between OECs and astrocytes (OECs and astrocytes [3]; listed as Hep9): induced boundaries between OECs and astrocytes
5 | 0.03 | 6-O-desulphated, 2-O-desulphated, N-acetylated heparin [HEP8] | NI (No inhibition of coagulation up to 100 ug/ml of compound) | NI (No inhibition of coagulation up to 100 ug/ml of compound) | NI (No inhibition of coagulation up to 100 ug/ml of compound) | NI (No inhibition of coagulation up to 100 ug/ml of compound) | SCs mingling with astrocytes / boundary formation (SCs and astrocytes; listed as Hep 8): increased number of SCs mingling with astrocytes; also recorded: significantly increased cell mingling; boundary formation between OECs and astrocytes (OECs and astrocytes [3]; listed as Hep 8): do not promote boundary formation; boundary formation between OECs and astrocytes (OECs and astrocytes [3]; listed as Hep8): did not

Further lines, the substance ahead of its results:

Row | Substance | Anticoagulant activity (anti-Xa activity) (Factor Xa (Homo sapiens) [2]) [%] | IC50 PT (normal human plasma [1]) | IC50 Factor IIa (Factor IIa) | IC50 Factor Xa (Factor Xa (Homo sapiens) [4]) | IC50 APTT (normal human plasma [5]) | other results
6 | N-acetyl heparin [HEP2] | 0.03 | – | – | – | – | boundary formation between OECs and astrocytes (OECs and astrocytes [3]; listed as Hep 2): induced significant boundary formation; boundary formation between OECs and astrocytes (OECs and astrocytes [3]; listed as Hep2): induced boundaries between OECs and astrocytes
7 | Heparin [reference compound] | – | 41.4 µg/mL and 41.4005 µg/mL | 1.0 µg/mL and 1.0326 µg/mL | 0.9 µg/mL and 0.9295 µg/mL | 1.2 µg/mL and 1.2461 µg/mL | boundary formation between OECs and astrocytes (OECs and astrocytes [6]): induce a boundary between OECs and astrocytes; graded score of boundary formation (OECs and astrocytes [3]; 10 μg/ml): ++
8 | Ido 2-de-O-sulphated heparin [HEP3] | 0.4 | – | – | – | – | boundary formation between OECs and astrocytes (OECs and astrocytes [3]; listed as Hep 3): lower boundary forming activity; boundary formation between OECs and astrocytes (OECs and astrocytes [3]; listed as Hep3): induced boundaries between OECs and astrocytes
9 | 6-O-desulphated heparin [HEP4] | 0.5 | – | – | – | – | boundary formation between OECs and astrocytes (OECs and astrocytes [3]; listed as Hep 4): lower boundary forming activity; boundary formation between OECs and astrocytes (OECs and astrocytes [3]; listed as Hep4): induced boundaries between OECs and astrocytes
10 | PIMH [HEP1, reference compound] | 100 | – | – | – | – | anticoagulant activity [7]: 201 IU/mg; boundary formation between OECs and astrocytes (OECs and astrocytes [3]): induced boundaries between OECs and astrocytes; also recorded: induced the strongest boundaries

Source: patent US9889150B2, “Agents for the prevention and/or treatment of central nervous system damage” (The University Of Liverpool, priority 2012, dated 2018)
